Assay results: paper PMC11017252, “Copper(II) Complexes with 2,2′:6′,2″-Terpyridine Derivatives Displaying Dimeric Dichloro−μ–Bridged Crystal Structure: Biological Activities from 2D and 3D Tumor Spheroids to In Vivo Models” (Journal of Medicinal Chemistry, 2024)

Experiments:
[1] = system: normal human primary dermal fibroblasts; experiment: MTS cell viability assay, normal fibroblasts; assay type: cell-based; settings: 48 h of exposure
Method: (§1) The in vitro cytotoxic potential of Cu(II) complexes in tumor and healthy cells was assessed using the MTS assay, a colorimetric method that allows the quantification of viable cells in culture.[46]
Cell culture and maintenance
(§2) The cancer cell lines HCT116 (colorectal carcinoma) and A2780 (ovarian carcinoma) were obtained
(§3) from the American Type Culture Collection (ATCC®, Manassas, VA, USA), as well as the normal
human primary dermal fibroblasts.
(§4) Apart from the A2780 cell line, which was cultured in Roswell Park Memorial Institute (RPMI)
(§5) medium, all cells were cultured in Dulbecco’s modified Eagle medium (DMEM). Both media were
(§6) supplemented with 10% (v/v) fetal bovine serum (FBS) and 1% (v/v) of a Pen/Strep
(§7) (Penicillin/Streptomycin) solution. To maintain the resistant phenotype of the HCT116DoxR cell line,
(§8) the medium was additionally supplemented with 3.6 μM Dox4. All media and supplements were
(§9) purchased from Thermo Fischer Scientific (Waltham, MA, USA).
(§10) Cells were maintained in 25 cm2 T-flasks (T25) in a humidified atmosphere at 37 °C and 5% (v/v) CO
(§11) (SANYO CO2 Incubator, Electric Biomedical Co., Osaka, Japan).
(§12) The effect of Cu(II) complexes on cell viability was studied in HCT116, HCT116DoxR, and A2780
(§13) cancer cell lines and in normal human primary fibroblasts. Cells were seeded in a density of 0.75×105
(§14) cells/mL into 96-well plates and incubated in a humidified atmosphere at 37 °C and 5% (v/v) CO2 for
(§15) 24 h. After incubation, complexes were weighed, immediately solubilized in 100% (v/v) DMSO and
(§16) diluted for the final concentration with cell culture medium. The medium in each well was replaced by
(§17) a solution of fresh medium containing each Cu(II) complex (concentrations ranging from 0.01 μM to
(§18) Following a second incubation period of 48 h in the same conditions, the supernatant of each well was
(§19) replaced by a solution containing MTS reagent (3-(4,5-dimethylthiazol-2-yl)-5-(3-
(§20) Non-Radioactive Cell Proliferation Assay Kit (Promega, Madison, WI, EUA) for a 30 minutes
(§21) incubation. The percentage of viable cells was indirectly determined by the spectrophotometric
(§22) quantification at 490 nm in a microplate reader, Tecan Infinite M200 (Tecan, Männedorf, Switzerland)
(§23) of formazan production, resultant from the reduction of the MTS reagent by mitochondrial

[2] = system: HCT116 (colorectal carcinoma cell line); experiment: MTS cell viability assay, 2D culture, HCT116; assay type: cell-based, human; settings: 48 h of exposure
Method: as §1
Cell culture and maintenance
as §2, §3
human primary dermal fibroblasts.
as §4, §5, §6, §7, §8, §9, §10, §11, §12, §13, §14, §15, §16, §17
(§24) as negative and positive controls, respectively.
as §18, §19
(§25) carboxymethoxyphenyl)-2-(4-sulfophenyl)-2H-tetrazolium) provided by the CellTiter 96® AQueous
as §20, §21, §22, §23
(§26) dehydrogenases. Since these enzymes are only active in viable cells, the absorbance value measured is
(§27) directly proportional to the percentage of viable cells in culture5.
(§28) By analysing the cell viability as a function of log10(concentration) using Prism 8 (GraphPad
(§29) in cell viability) of each complex in the respective cell line at 48 h. The selective index (SI) for each
(§30) complex was also determined by dividing the IC50 of human fibroblasts by the respective IC50 in each
(§31) cancer cell line (allowing us to understand how much active a complex is in tumor versus normal cell).

[3] = system: A2780 (ovarian carcinoma cell line); experiment: MTS cell viability assay, 2D culture, A2780; assay type: cell-based, human; settings: 48 h of exposure
Method: as §1
Cell culture and maintenance
as §2, §3
human primary dermal fibroblasts.
as §4, §5, §6, §7, §8, §9, §10, §11, §12, §13, §14, §15, §16, §17, §24, §18, §19, §25, §20, §21, §22, §23, §26, §27, §28, §29, §30, §31

[4] = system: HCT116DoxR (Dox-resistant colorectal carcinoma cell line); experiment: MTS cell viability assay, 2D culture, HCT116DoxR; settings: read-out: IC50 (μM) HCT116DoxR, 48 h of exposure
Method: as §1
In this regard, cell viability was performed for each of the ligands on HCT116DoxR and fibroblasts.
Cell culture and maintenance
as §2, §3
human primary dermal fibroblasts.
as §4, §5, §6, §7, §8, §9, §10, §11, §12, §13, §14, §15, §16, §17, §24, §18, §19, §25, §20, §21, §22, §23, §26, §27

pUC18 plasmid DNA = experiment: pDNA cleavage in vitro (agarose gel electrophoresis); assay type: biochemical, E. coli; settings: 24 h; TBHP 20 μM, NaN3 50 μM

With F[P-](F)(F)(F)(F)F.F[P-](F)(F)(F)(F)F.[Cl][Cu].[Cl][Cu].c1ccc(-c2cc(-c3cccc4ccccc34)cc(-c3ccccn3)n2)nc1.c1ccc(-c2cc(-c3cccc4ccccc34)cc(-c3ccccn3)n2)nc1 [complex 1, [Cu2Cl2(4′-(1-Naphthyl)-terpy)2](PF6)2] the IC50 [1] was 3.04 ± 0.02 µM, the IC50 [2] was 0.16 ± 0.01 µM and the IC50 [3] was 0.8 ± 0.05 µM. The IC50 [4] was 0.12 ± 0.01 µM.
CCn1c2ccccc2c2cc(-c3cc(-c4ccccn4)nc(-c4ccccn4)c3)ccc21 [L8] was tested, and the IC50 [1] was about 10 µM and the IC50 [4] was 0.4 ± 0.04 µM.
For c1ccc(-c2cc(-c3ccnc4ccccc34)cc(-c3ccccn3)n2)nc1 [L2], the IC50 [1] was over 50 µM and the IC50 [4] was 0.4 ± 0.02 µM.
Compound c1ccc(-c2cc(-c3ccco3)cc(-c3ccccn3)n2)nc1 [L5] has an IC50 [1] of over 50 µM and an IC50 [4] of 0.6 ± 0.02 µM.
In the case of CC(C)(C)OO [TBHP, Tert-Butyl hydroperoxide, reference compound], the “effect of control reagent alone on pUC18” value (pUC18 plasmid DNA) is reported as “unable to induce pUC18 cleavage”.
c1ccc(-c2cc(-c3ccccn3)nc(-c3ccccn3)c2)nc1 [L7] showed an IC50 [1] of about 50 µM and an IC50 [4] of 0.5 ± 0.06 µM.
For COc1ccc2c(OC)ccc(-c3cc(-c4ccccn4)nc(-c4ccccn4)c3)c2c1.COc1ccc2c(OC)ccc(-c3cc(-c4ccccn4)nc(-c4ccccn4)c3)c2c1.F[P-](F)(F)(F)(F)F.F[P-](F)(F)(F)(F)F.[Cl][Cu].[Cl][Cu] [complex 4, [Cu2Cl2(4′-(4,7-Dimethoxy-1-naphthyl)-terpy)2](PF6)2], the IC50 [1] was 2.64 ± 0.1 µM, the IC50 [2] was 0.15 ± 0.04 µM and the IC50 [3] was 0.49 ± 0.1 µM. The IC50 [4] was 0.16 ± 0.01 µM.
For [N-]=[N+]=[N-].[Na+] [NaN3, sodium azide, reference compound], the “effect of control reagent alone on pUC18” value (pUC18 plasmid DNA) was “no effect”.
Work on CCn1c2ccccc2c2cc(-c3cc(-c4ccccn4)nc(-c4ccccn4)c3)ccc21.CCn1c2ccccc2c2cc(-c3cc(-c4ccccn4)nc(-c4ccccn4)c3)ccc21.F[P-](F)(F)(F)(F)F.F[P-](F)(F)(F)(F)F.[Cl][Cu].[Cl][Cu] [complex 8, [Cu2Cl2(4′-(N-Ethyl-9H-carbazol-3-yl)-terpy)2](PF6)2] yielded an IC50 [1] of 7.36 ± 0.04 µM, an IC50 [2] of 0.1 ± 0.03 µM and an IC50 [3] of 0.37 ± 0.06 µM. For the same compound, the IC50 [4] was 0.19 ± 0.06 µM.
With COc1ccc2c(OC)ccc(-c3cc(-c4ccccn4)nc(-c4ccccn4)c3)c2c1 [L4] the IC50 [1] was 13.1 ± 3.18 µM and the IC50 [4] was 0.4 ± 0.25 µM.
For c1ccc(-c2cc(-c3cccc4ccccc34)cc(-c3ccccn3)n2)nc1 [L1], the IC50 [1] was over 50 µM and the IC50 [4] was about 0.2 µM.
